# ChEMBL document CHEMBL3045396, “Easy Preparation of Methyl 7-epi-Jasmonate and Four Stereoisomers of Methyl Cucurbate, and Assessment of the Stereogenic Effect of Jasmonate on Phytohormonal Activities” (Biosci Biotechnol Biochem, 1999)
# Active and inactive are the calls of the source. No cut-off for these calls is given here.
# How the values were obtained:
# Lepidium sativum = assay: Phytohormonal activity against Lepidium sativum assessed as inhibition of seed germination at 100 to 1000 uM after 2 days relative to control; format: functional, organism-based
# Oryza sativa = assay: Phytohormonal activity against Oryza sativa (rice) seedlings assessed as growth inhibition of second leaf sheath at 1 to 300 uM after 5 days relative to control; format: functional, organism-based
SMILES,inhibition (Lepidium sativum),growth inhibition (GI) (Oryza sativa)
CC/C=C\C[C@H]1C(=O)CC[C@@H]1CC(=O)OC (racemic),Active,Active
CC/C=C\C[C@@H]1[C@@H](CC(=O)OC)CC[C@H]1O,inactive,inactive
CC/C=C\C[C@H]1[C@@H](CC(=O)OC)CC[C@@H]1O,Active,Active
CC/C=C\C[C@H]1[C@@H](CC(=O)OC)CC[C@H]1O,Active,Active
CC/C=C\C[C@@H]1[C@@H](CC(=O)OC)CC[C@@H]1O,inactive,inactive
CC/C=C\C[C@H]1C(=O)CC[C@@H]1CC(=O)O,,Active
CC/C=C\C[C@H]1[C@@H](CC(=O)O)CC[C@@H]1O,,inactive
CC/C=C\C[C@@H]1C(=O)CC[C@@H]1CC(=O)OC,Active,Active
